# Measurements: ChEMBL document CHEMBL1201862, “PubChem BioAssay data set” (2004)
#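 Interpolation was linear, between the two tested concentrations surrounding the appropriate level; five concentrations were tested over 48 hours in 96-well plates. Abbreviation: GI50, concentration required for 50% inhibition of growth.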 Calls of active or inactive are those of the source. Rule as the data show it: active = GI50 up to about 1.1 µM and inactive = higher.
# Tests used:
# Assay in all cases: NCI-60 cell line screen, 48 h
# OVCAR-5 = tested on: OVCAR-5
# ACHN = tested on: ACHN
# SN12C = tested on: SN12C
# SK-MEL-5 = tested on: SK-MEL-5
# CCRF-CEM = tested on: CCRF-CEM
# MOLT-4 = tested on: MOLT-4
# HCT-15 = tested on: HCT-15
# COLO 205 = tested on: COLO 205
# OVCAR-3 = tested on: OVCAR-3
# IGROV-1 = tested on: IGROV-1
# SK-MEL-2 = tested on: SK-MEL-2
# SNB-19 = tested on: SNB-19
# SK-OV-3 = tested on: SK-OV-3
# HT-29 = tested on: HT-29
# DLD-1 = tested on: DLD-1
# OVCAR-4 = tested on: OVCAR-4
# HCC 2998 = tested on: HCC 2998
# LOX IMVI = tested on: LOX IMVI
Compound,GI50 (OVCAR-5),GI50 (ACHN),GI50 (SN12C),GI50 (SK-MEL-5),GI50 (CCRF-CEM),GI50 (MOLT-4),GI50 (HCT-15),GI50 (COLO 205),GI50 (OVCAR-3),GI50 (IGROV-1),GI50 (SK-MEL-2),GI50 (SNB-19),GI50 (SK-OV-3),GI50 (HT-29),GI50 (DLD-1),GI50 (OVCAR-4),GI50 (HCC 2998),GI50 (LOX IMVI)
CCN(c1ccc(Br)cc1)c1c(Br)c(=O)nc2ccccn12,> 100 µM (inactive),> 100 µM (inactive),> 100 µM (inactive),59.8 µM (inactive),> 100 µM (inactive),> 100 µM (inactive),99.1 µM,> 100 µM (inactive),> 100 µM (inactive),> 100 µM (inactive),> 100 µM (inactive),> 100 µM (inactive),51.5 µM (inactive),> 100 µM (inactive),> 100 µM (inactive),,,
CN(C(=O)C12C3(C(=O)C(C)(C)C)C4C5(C#N)C3C1(C(=O)C(C)(C)C)C5C42C(=O)C(C)(C)C)C(C)(C)C (stereo not drawn),> 50 µM (inactive),25.2 µM (inactive),> 50 µM (inactive),> 50 µM (inactive),16.6 µM (inactive),20 µM (inactive),> 50 µM,> 50 µM (inactive),38.9 µM (inactive),> 50 µM (inactive),,> 50 µM (inactive),> 50 µM (inactive),> 50 µM (inactive),35.3 µM (inactive),31.6 µM (inactive),> 50 µM (inactive),
CN(C)C(=S)/N=c1\sn(C)/c(=N\C(=S)N(C)C)n1C,> 100 µM (inactive),> 100 µM (inactive),> 100 µM (inactive),29.1 µM (inactive),,> 100 µM (inactive),> 100 µM,> 100 µM (inactive),> 100 µM (inactive),> 100 µM (inactive),,> 100 µM (inactive),> 100 µM (inactive),25.9 µM (inactive),> 100 µM (inactive),> 100 µM (inactive),> 100 µM (inactive),45.1 µM (inactive)
CS(=O)(=O)N(N(CCCl)S(=O)(=O)c1ccccc1)S(C)(=O)=O,,> 100 µM (inactive),> 100 µM (inactive),52.7 µM (inactive),> 100 µM (inactive),> 100 µM (inactive),> 100 µM,> 100 µM (inactive),> 100 µM (inactive),,> 100 µM (inactive),67.9 µM (inactive),,> 100 µM (inactive),> 100 µM (inactive),> 100 µM (inactive),> 100 µM (inactive),
CCN(CC)c1ccc2c(c1)Nc1cc(=C(C#N)C#N)c3ccccc3c1=N2,> 100 µM (inactive),> 100 µM (inactive),> 100 µM (inactive),> 100 µM (inactive),,> 100 µM (inactive),,> 100 µM (inactive),> 100 µM (inactive),> 100 µM (inactive),> 100 µM (inactive),> 100 µM (inactive),> 100 µM (inactive),> 100 µM (inactive),> 100 µM (inactive),> 100 µM (inactive),> 100 µM (inactive),53.5 µM (inactive)
CC(=O)NC1C(O)CC(OCCCSCCN)(C(=O)O)OC1C(O)C(O)CO (stereo not drawn),> 100 µM (inactive),> 100 µM (inactive),> 100 µM (inactive),> 100 µM (inactive),> 100 µM (inactive),> 100 µM (inactive),> 100 µM,> 100 µM (inactive),,> 100 µM (inactive),> 100 µM (inactive),> 100 µM (inactive),,> 100 µM (inactive),> 100 µM (inactive),> 100 µM (inactive),> 100 µM (inactive),> 100 µM (inactive)
